Structures can show the parent of a compound that is named as a salt.
Target: T1, IRAK4 (Homo sapiens, UniProt Q9NWZ3)
T1 sequence (Q9NWZ3 1-460): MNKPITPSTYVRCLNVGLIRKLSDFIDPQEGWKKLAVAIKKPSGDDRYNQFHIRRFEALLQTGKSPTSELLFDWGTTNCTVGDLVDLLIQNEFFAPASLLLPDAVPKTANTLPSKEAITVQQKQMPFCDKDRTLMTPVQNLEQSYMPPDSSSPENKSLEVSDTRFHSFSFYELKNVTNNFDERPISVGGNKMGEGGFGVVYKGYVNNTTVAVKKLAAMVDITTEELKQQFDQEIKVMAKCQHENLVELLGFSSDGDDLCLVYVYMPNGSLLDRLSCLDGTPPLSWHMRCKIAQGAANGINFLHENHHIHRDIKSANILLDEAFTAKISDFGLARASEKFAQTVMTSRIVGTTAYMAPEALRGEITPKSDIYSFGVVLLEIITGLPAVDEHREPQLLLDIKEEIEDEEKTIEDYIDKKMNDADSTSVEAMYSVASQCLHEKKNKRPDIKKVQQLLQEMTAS
Test: Degradation of IRAK4 in THP1 cells, Western blot
Type: cell-based
Set-up: Degradation of IRAK4 in THP1 by compound; host or cells: THP-1
Conditions: THP-1 cells, 24 hours of incubation; for DC50: IRAK4 protein by Western blot, read-out: DC50; for Dmax: maximum degradation rate, read-out: Dmax
Experimental: After 24 hours of incubation, the cells were collected into 1.5 mL centrifuge tubes and centrifuged at 1,000 rpm for 5 minutes. […] The supernatants were collected, and the IRAK4 protein levels were respectively detected by Western blot (WB). The total protein concentration in the cell lysate supernatant was determined using a BCA protein quantification kit (NCM). Based on the total protein concentration detected by BCA, the samples were adjusted to 2 μg/μL using cell lysis buffer and 5×SDS-PAGE protein loading buffer (Beyotime), heated at 95°C for 5 minutes in a metal bath, and then placed on ice for an ice bath for 5 minutes before being used as the loading samples for Western blot analysis. Protein electrophoresis was performed using a 10% SDS-PAGE gel with a loading volume of 20 μL (total protein 40 μg) and Tris-SDS electrophoresis at a constant voltage of 80 V. After electrophoresis, the proteins on the gel were transferred to a 0.2 μm PVDF membrane (Immobilon) using a semi-dry transfer method at 0.5 A and 20 V for 60 minutes. After transfer, the membrane was placed in 5% skimmed milk and incubated at rt for 2 hours. After blocking, the PVDF membrane was incubated with primary antibody against IRAK4 (Abcam) at 4°C overnight. […] The color development and protein band imaging were performed using a chemiluminescence imaging system ([…] Technology Co., Ltd.). The protein bands were analyzed for grayscale values using Image J analysis software. The corrected grayscale values for each sample were calculated and then compared with those of the control group treated with DMSO alone to calculate the degradation rate.

Structure (SMILES)	DC50	Dmax
Cn1c(=O)n(C2CCC(=O)NC2=O)c2cccc(N3CCC(CN4CCN(c5ccc(-n6cc(NC(=O)c7cccc(-c8ccn[nH]8)n7)c(S(N)(=O)=O)n6)cc5)CC4)CC3)c21 (centres unmarked) [Compound A327, N-(1-(4-(4-((1-(1-(2,6-dioxopiperidin-3-yl)-3-methyl-2-oxo-2,3-dihydro-1H-benzo[d]imidazol-4-yl)piperidin-4-yl)methyl)piperazin-1-yl)phenyl)-3-sulfamoyl-1H-pyrazol-4-yl)-6-(1H-pyrazol-5-yl)picolinamide]	< 100 nM	> 60%
COc1ccc(C(=O)N2CCC(CCN3CCN(c4ccc(-n5cc(NC(=O)c6cccc(-c7ccn[nH]7)n6)c(S(N)(=O)=O)n5)cc4)CC3)C2)cc1N1CCC(=O)NC1=O (centres unmarked) [Compound A328, N-(1-(4-(4-(1-(3-(2,4-dioxotetrahydropyrimidin-1(2H)-yl)-4-methoxybenzoyl)pyrrolidin-3-ethyl)piperazin-1-yl)phenyl)-3-sulfonylamino-1H-pyrazol-4-yl)-6-(1H-pyrazol-5-yl)picolinamide trifluoroacetate]	< 100 nM	> 60%
COc1ccc(C(=O)N2CCC(CN3CCN(c4ccc(-n5cc(NC(=O)c6cccc(-c7ccn[nH]7)n6)c(S(N)(=O)=O)n5)cc4)CC3)C2)cc1N1CCC(=O)NC1=O (centres unmarked) [Compound A329, N-(1-(4-(4-((1-(3-(2,4-dioxotetrahydropyrimidin-1(2H)-yl)-4-methoxybenzoyl)pyrrolidin-3-yl)methyl)piperazin-1-yl)phenyl)-3-sulfamoyl-1H-pyrazol-4-yl)-6-(1H-pyrazol-5-yl)picolinamide trifluoroacetate]	< 100 nM	> 60%
Cn1c(=O)n(C2CCC(=O)NC2=O)c2cccc(NCC3CCC4(CC3)CCN(C(=O)c3ccc(-n5cc(NC(=O)c6cccc(-c7ccn[nH]7)n6)c(S(N)(=O)=O)n5)cc3)CC4)c21 (centres unmarked) [Compound A330]	< 100 nM	> 60%
Cn1c(=O)n(C2CCC(=O)NC2=O)c2cccc(N3CCC(C(=O)N4CCN(Cc5ccc(-n6cc(NC(=O)c7cccc(-c8ccn[nH]8)n7)c(S(N)(=O)=O)n6)cc5)CC4)CC3)c21 (centres unmarked) [Compound A331, N-(1-(4-((4-(1-(1-(2,6-dioxopiperidin-3-yl)-3-methyl-2-oxo-2,3-dihydro-1H-benzo[d]imidazol-4-yl)piperidine-4-carbonyl)piperazin-1-yl)methyl)phenyl)-3-sulfamoyl-1H-pyrazol-4-yl)-6-(1H-pyrazol-5-yl)picolinamide]	< 100 nM	> 60%
Cn1c(=O)n(C2CCC(=O)NC2=O)c2cccc(N3CCN(C(=O)C4CCN(Cc5ccc(-n6cc(NC(=O)c7cccc(-c8ccn[nH]8)n7)c(S(N)(=O)=O)n6)cc5)CC4)CC3)c21 (centres unmarked) [Compound A332, N-(1-(4-((4-(4-(1-(2,6-Dioxopiperidin-3-yl)-3-methyl-2-oxo-2,3-dihydro-1H-benzo[d]imidazol-4-yl)piperazine-1-carbonyl)piperidin-1-yl)methyl)phenyl)-3-sulfamoyl-1H-pyrazol-4-yl)-6-(1H-pyrazol-5-yl)picolinamide]	< 100 nM	> 60%
Cn1c(=O)n(C2CCC(=O)NC2=O)c2cccc(NCCN3CCC4(CCN(C(=O)c5ccc(-n6cc(NC(=O)c7cccc(-c8ccn[nH]8)n7)c(S(N)(=O)=O)n6)cc5)C4)C3)c21 (centres unmarked) [Compound A333]	< 100 nM	> 60%
Cn1c(=O)n(C2CCC(=O)NC2=O)c2cccc(NCCN3CC4(C3)CN(Cc3ccc(-n5cc(NC(=O)c6cccc(-c7ccn[nH]7)n6)c(S(N)(=O)=O)n5)cc3)C4)c21 (centres unmarked) [Compound A334]	< 100 nM	> 60%
Cn1c(=O)n(C2CCC(=O)NC2=O)c2cccc(C#CCOC3CCN(C(=O)c4ccc(-n5cc(NC(=O)c6cccc(-c7ccn[nH]7)n6)c(S(N)(=O)=O)n5)cc4)CC3)c21 (centres unmarked) [Compound A335, N-(1-(4-(4-((3-(1-(2,6-Dioxopiperidin-3-yl)-3-methyl-2-oxo-2,3-dihydro-1H-benzo[d]imidazol-4-yl)prop-2-yn-1-yl)oxy)piperidine-1-carbonyl)phenyl)-3-sulfamoyl-1H-pyrazol-4-yl)-6-(1H-pyrazol-5-yl)picolinamide]	< 100 nM	> 60%
Cn1c(=O)n(C2CCC(=O)NC2=O)c2cccc(C#CCCN3CCN(C(=O)c4ccc(-n5cc(NC(=O)c6cccc(-c7ccn[nH]7)n6)c(S(N)(=O)=O)n5)cc4)CC3)c21 (centres unmarked) [Compound A336]	< 100 nM	> 60%
CN(CCN1CC2CN(c3cccc4c3n(C)c(=O)n4C3CCC(=O)NC3=O)CC2C1)Cc1ccc(-n2cc(NC(=O)c3cccc(-c4ccn[nH]4)n3)c(S(N)(=O)=O)n2)cc1 (centres unmarked) [Compound A337, N-(1-(4-(((2-(5-(1-(2,6-Dioxopiperidin-3-yl)-3-methyl-2-oxo-2,3-dihydro-1H-benzo[d]imidazol-4-yl)hexahydropyrrolo[3,4-c]pyrrol-2(1H)-yl)ethyl)(methyl)amino)methyl)phenyl)-3-sulfamoyl-1H-pyrazol-4-yl)-6-(1H-pyrazol-5-yl)picolinamide]	< 100 nM	> 60%
Cn1c(=O)n(C2CCC(=O)NC2=O)c2cccc(NCCN3CC4CN(Cc5ccc(-n6cc(NC(=O)c7cccc(-c8ccn[nH]8)n7)c(S(N)(=O)=O)n6)cc5)CC4C3)c21 (centres unmarked) [Compound A338]	< 100 nM	> 60%
Cn1c(=O)n(C2CCC(=O)NC2=O)c2cccc(NCCN3CC4CN(C(=O)c5ccc(-n6cc(NC(=O)c7cccc(-c8ccn[nH]8)n7)c(S(N)(=O)=O)n6)cc5)CC4C3)c21 (centres unmarked) [Compound A339]	< 100 nM	> 60%
Cn1c(=O)n(C2CCC(=O)NC2=O)c2cccc(C#CCOC3CCN(Cc4ccc(-n5cc(NC(=O)c6cccc(-c7ccn[nH]7)n6)c(S(N)(=O)=O)n5)cc4)CC3)c21 (centres unmarked) [Compound A340, N-(1-(4-((4-((3-(1-(2,6-Dioxopiperidin-3-yl)-3-methyl-2-oxo-2,3-dihydro-1H-benzo[d]imidazol-4-yl)prop-2-yn-1-yl)oxy)piperidin-1-yl)methyl)phenyl)-3-sulfamoyl-1H-pyrazol-4-yl)-6-(1H-pyrazol-5-yl)picolinamide]	< 100 nM	> 60%
Cn1c(=O)n(C2CCC(=O)NC2=O)c2cccc(N3CCC4(CCN(CCNC(=O)c5ccc(-n6cc(NC(=O)c7cccc(-c8ccn[nH]8)n7)c(S(N)(=O)=O)n6)cc5)C4)C3)c21 (centres unmarked) [Compound A341, N-(1-(4-((2-(7-(1-(2,6-Dioxopiperidin-3-yl)-3-methyl-2-oxo-2,3-dihydro-1H-benzo[d]imidazol-4-yl)-2,7-diazaspiro[4.4]nonan-2-yl)ethyl)carbamoyl)phenyl)-3-sulfamoyl-1H-pyrazol-4-yl)-6-(1H-pyrazol-5-yl)picolinamide formate]	< 100 nM	> 60%
Cn1c(=O)n(C2CCC(=O)NC2=O)c2cccc(NCCN3CC4(C3)CN(C(=O)c3ccc(-n5cc(NC(=O)c6cccc(-c7ccn[nH]7)n6)c(S(N)(=O)=O)n5)cc3)C4)c21 (centres unmarked) [Compound A343]	< 100 nM	> 60%
Cn1c(=O)n(C2CCC(=O)NC2=O)c2cccc(C#CCOC3CN(C(=O)c4ccc(-n5cc(NC(=O)c6cccc(-c7ccn[nH]7)n6)c(S(N)(=O)=O)n5)cc4)C3)c21 (centres unmarked) [Compound A348]	< 100 nM	> 60%
N#Cc1ccnc(C(=O)Nc2cn(-c3ccc(N4CCN(CC5CCN(c6ccc(NC7CCC(=O)NC7=O)cc6F)CC5)CC4)cc3)nc2C(N)=O)c1 (centres unmarked) [Compound A349, N-(3-Carbamoyl-1-(4-(4-((1-(4-((2,6-dioxopiperidin-3-yl)amino)-2-fluorophenyl)piperidin-4-yl)methyl)piperazin-1-yl)phenyl)-1H-pyrazol-4-yl)-4-cyanopicolinamide]	> 1000 nM	< 40%
Cn1c(=O)n(C2CCC(=O)NC2=O)c2cccc(N3CCC(CCN4CCN(c5ccc(-n6cc(NC(=O)c7cccc(-c8ccn[nH]8)n7)c(S(N)(=O)=O)n6)cc5)CC4)CC3)c21 (centres unmarked) [Compound A350, N-(1-(4-(4-(2-(1-(1-(2,6-Dioxopiperidin-3-yl)-3-methyl-2-oxo-2,3-dihydro-1H-benzo[d]imidazol-4-yl)piperidin-4-yl)ethyl)piperazin-1-yl)phenyl)-3-sulfamoyl-1H-pyrazol-4-yl)-6-(1H-pyrazol-5-yl)picolinamide]	< 100 nM	> 60%

— patent EP4763839A1 (Pamplona Therapeutics (Shenzhen) Co., Ltd., priority 2023, dated 2025)
